For 7 compounds, IC50 results are on record in ChEMBL document CHEMBL1127653, “Synthesis and anticholinergic activity of the four stereoisomers of 4-(dimethylamino)-2-phenyl-2-(2-pyridyl)pentanamide” (J Med Chem, 1994).

Molecules are shown by their SMILES.

The species named for the first assay is Cavia porcellus. The assay is described as follows: Inhibitory effect on acetylcholine-Induced contraction of Guinea pig iIeum. The assay is classed as functional.
Conditions: not given
Consider `CC(CC(C(N)=O)(c1ccccc1)c1ccccn1)N(C)C` (racemic; form 1) [VAMICAMIDE], for which half-maximal inhibition (IC50) was put at 1.5 µM.

As for `CC(CC(C(N)=O)(c1ccccc1)c1ccccn1)N(C)C` (racemic; form 2) [VAMICAMIDE], 0.57 µM corresponded to half-maximal inhibition (IC50).

Take `C[C@H](C[C@@](C(N)=O)(c1ccccc1)c1ccccn1)N(C)C` (stereo in doubt; 10 (2R,4R)): 0.4 µM corresponded to half-maximal inhibition (IC50).

Regarding `C[C@H](C[C@@](C(N)=O)(c1ccccc1)c1ccccn1)N(C)C` (stereo in doubt; 11 (2S,4S)), the IC50 was found to be 31 µM. This IC50 is about 78-fold higher than that of the compound before.

Compound `C[C@H](C[C@@](C(N)=O)(c1ccccc1)c1ccccn1)N(C)C` (stereo in doubt; 12 (2R,4S)) had an IC50 of 170 µM.

On to `C[C@H](C[C@@](C(N)=O)(c1ccccc1)c1ccccn1)N(C)C` (stereo in doubt; 13 (2S,4R)), for which the IC50 came to 0.13 µM.

Staying with this assay, now noted: Cavia porcellus.
In the case of `CN(C)CCC(C(N)=O)(c1ccccc1)c1ccccn1` (configuration not stated), the IC50 stood at 8.1 µM.

For orientation: IC50 means the point on the concentration scale where inhibition reaches its midpoint.
